The values that follow come from US6887847B2, “Virus derived antimicrobial peptides” (University of Pittsburgh, priority 2001, dated 2005).

Converted amounts (≈) assume the structure as drawn. Like-named read-outs stand apart in the source and are kept apart here. Residues, ends and D or L forms follow the SMILES beside them.

In data set [1] the target is Ca^2+-saturated calmodulin (Homo sapiens, UniProt P0DP23). As to conditions: host cell Ca^2+-saturated calmodulin; cited from earlier work.
Data set [2] deals with Staphylococcus aureus. As to conditions: 1×10^5 colony-forming units; cited from earlier work.
The test system of data set [3] is diverse gram-negative and -positive bacterial isolates. As to conditions: cited from earlier work.
The subject of a further data set is Pseudomonas aeruginosa. The data set is classed as cell-based. The source says:
(§1) The assays for growth inhibition of a microbial target can be used to derive a minimum bactericidal concentration (MBC) value for the peptide, i.e., the concentration of peptide required to kill 99.9% of the microbial sample being tested. This value is well known to those in the art as representative of the effectiveness of a particular antimicrobial agent (e.g., an antibiotic) against a particular organism or group of organisms. In assays to detect the MBC of a peptide, growth inhibition of a bacterial population also can be measured with reference to the number of colony forming units (cfu) after exposure to a peptide relative to a control experiment without a peptide.
(§2) Bacterial lysis assay. Bacterial lysis assays were conducted in a manner similar to that described previously (Lehrer, R. I., M. E. Selsted, D. Szklarek, and F. J. 1983. Infect. Immun. 42: 10-4, 1983; Miller, M. A., R. F. Garry, J. M. Jaynes, and R. C. Montelaro, AIDS Res Hum Retroviruses 7: 511-519, 1991). Bacterial suspensions were cultured in Luria-Bertani Broth to mid-log growth phase and washed by two cycles of centrifugation and suspension in 10 mM phosphate buffer. The Abs600 of the suspension was adjusted with 10 mM phosphate buffer such that, upon dilution, 5-10×10^5 cfu/mL would be treated in the assay. Bacteria were incubated for 1 h with two-fold dilutions of peptides (100 μM to 100 nM) in 96-well plates using 10 mM phosphate buffer, pH 7.2, as a diluent. Ten-fold dilutions of bacteria were performed to 1:1000; a 100 μl aliquot from each condition was spread on the surface of tryptic soy agar plates (Difco, Detroit, Mich.) which were incubated overnight. Colonies of surviving bacteria (cfu, colony-forming units) were counted and compared to untreated controls to determine the amount of peptide-induced killing under each condition. Log killing is defined as the log of the ratio of cfu present before and after treatment with peptide. The minimal bactericidal concentration, MBC, is the peptide concentration at which 99.9% (three log) killing is achieved (Pearson et al., Antimicrob. Agents Chemother. 18: 699-708, 1980).
(§3) A limitation of many host-derived antimicrobial peptides is their decreased activity at physiologic (150 mM) NaCl concentration. See Friedrich et al., Antimicrobial Agents and Chemotherapy 43:1542-1548. The peptides WLSA-5 (SEQ ID NO:3) and LL37 were tested against the two index strains at physiologic NaCl. […] The activity of eLLPs and LBUs of this invention were compared to an expanded list of clinical bacterial isolates. These are summarized in Table 2 by comparing their MBCs in phosphate buffer alone (low salt) and phosphate buffer containing 150 mM NaCl (physiologic conditions). Inspection of this table would lead one skilled in the art to conclude that the activity of eLLPs and LBUs compare favorably to the host derived antimicrobial peptides as it relates to the spectrum and potency of antimicrobial activity.

Data set [4] deals with Staphylococcus aureus. Kind of data set: Bacterial lysis (broth dilution) assay, MBC. The data set is classed as cell-based.
Source text: as §1, §2, §3
(In general: Broth dilution looks for growth in wells or tubes with falling amounts of substance.)

Data set [5] relates to Methicillin Resistant S. aureus. In kind it is cell-based, Staphylococcus aureus. As to conditions: 0 mM NaCl (phosphate buffer, low salt).
Source text: as §1
Bacterial lysis assay. Bacterial lysis assays were conducted in a manner similar to that described previously (Lehrer, R. I., M. E. Selsted, D. Szklarek, and F. J. 1983. Infect. Immun. 42: 10-4, 1983; Miller, M. A., R. F. Garry, J. M. Jaynes, and R. C. Montelaro, AIDS Res Hum Retroviruses 7: 511-519, 1991). Bacterial suspensions were cultured in Luria-Bertani Broth to mid-log growth phase and washed by two cycles of centrifugation and suspension in 10 mM phosphate buffer. […] Colonies of surviving bacteria (cfu, colony-forming units) were counted and compared to untreated controls to determine the amount of peptide-induced killing under each condition. […]

Data set [6] in a line: Rabbit joint model of septic arthritis. In kind it is in vivo, New Zealand white rabbit. As to conditions: peptide administered alone, all animal experiments. The text has this:
We have extended these findings to a septic arthritis animal model. In this study joint sepsis was induced by inoculating one knee of a 2.5 Kg New Zealand white rabbit with 1×10^5 colony forming units of a clinical S. aureus isolate, a strain resistant to penicillin but sensitive to methicillin, cephalosporins, and clindamycin. Using this model, symptoms of septic arthritis (e.g., degradation of the synovium) were monitored and the ability of antimicrobial agents to limit the degeneration of the joint post-infection can be assessed. In this application the bacterial infection is allowed to establish for 1 h. At this point the joint was accessed and increasing concentrations of LSA-5 (SEQ ID NO:2) (0, 50, 100, and 200 μM) in phosphate buffer (PB) was administered intraarticularly. The concentration of bacteria associated with joint fluid was established at time 0 and 1 h post LSA-5 (SEQ ID NO:2) instillation by plating dilutions of the synovial fluid on LB agar.
This was compared with multiple injections of a standard 0.35% neomycin or a combination of neomycin and LSA-5 (SEQ ID NO:2). Administration of each of these formulations was performed intraarticularly at time 0,1, and 2 h.

The test system of data set [7] is differentiated primary human airway epithelial cells. Kind of data set: Cystic fibrosis cell culture model: transepithelial resistance. The data set is classed as cell-based. As to conditions: compared with LL-37. As for the experimental part:
Preparation of eukaryotic cells. Differentiated primary cell cultures of human bronchial epithelial (HBE) cells (CF and non-CF) on an air-liquid interface were prepared in antibiotic free media. See Zabner, J. et al., 1996, J Virol. 70:6994-7003. These filters were incubated with P. aeruginosa followed by washing to remove non-adherent bacteria. Individual filters were next exposed to peptide at increasing concentrations. In order to release viable bacteria, trypsin/EDTA was added and these preparations were plated on standard bacteriologic media to quantify bacterial survival. Similarly prepared cells were monitored for peptide toxicity by measuring transepithelial resistance. The advantage of this model is that it can measure the selective toxicity of peptide for bacterium versus host cells under identical conditions.
Based on above in vitro findings, WLSA-5 (SEQ ID NO:3) was tested in a scenario that more accurately assessed its selective toxicity. For this assay, a cell culture model of bacterial adherence was established that utilized differentiated primary human airway epithelial cells. […] The ability of peptide to kill bacteria is monitored as a function of viable bacteria associated with the epithelial cells after peptide exposure. […]

The mark [8] stands for this setting: 0 mM NaCl (phosphate buffer, low salt).

On to `CC[C@H](C)[C@H](NC(=O)[C@H](C)NC(=O)[C@H](CCCNC(=N)N)NC(=O)[C@H](CS)NC(=O)[C@H](C)NC(=O)CNC(=O)[C@H](CCC(N)=O)NC(=O)[C@@H](NC(=O)[C@@H](NC(=O)[C@H](CCC(=O)O)NC(=O)[C@@H](NC(=O)[C@@H](NC(=O)[C@@H](N)CCCNC(=N)N)C(C)C)[C@@H](C)CC)C(C)C)C(C)C)C(=O)N[C@@H](CCCNC(=N)N)C(=O)N[C@@H](Cc1c[nH]cn1)C(=O)N[C@H](C(=O)N1CCC[C@H]1C(=O)N[C@@H](CCCNC(=N)N)C(=O)N[C@@H](CCCNC(=N)N)C(=O)N[C@H](C(=O)N[C@@H](CCCNC(=N)N)C(=O)N[C@@H](CCC(N)=O)C(=O)NCC(=O)N[C@@H](CC(C)C)C(=O)N[C@@H](CCC(=O)O)C(=O)N[C@@H](CCCNC(=N)N)C(=O)N[C@H](C(=O)N[C@@H](CC(C)C)C(=O)O)[C@@H](C)CC)[C@@H](C)CC)[C@@H](C)CC` [LLP1] (H-RVIEVVQGACRAIRHIPRRIRQGLERIL-OH; N-terminus and C-terminus assumed), for which, in data set [1], the calmodulin binding affinity result is “near nanomolar affinity”. For the same compound, in the data set on Staphylococcus aureus [2], the “time to nearly sterilize suspension” value was ≤ 60 s. Moreover, the “antibacterial activity compared with magainin-2” value in data set [3] is “equal to, or more potent than magainin-2”.
For `CC[C@H](C)[C@H](NC(=O)[C@H](C)NC(=O)[C@H](CCCNC(=N)N)NC(=O)[C@H](CS)NC(=O)[C@H](C)NC(=O)[C@H](CCCNC(=N)N)NC(=O)[C@H](CCC(N)=O)NC(=O)[C@@H](NC(=O)[C@@H](NC(=O)[C@H](CCCNC(=N)N)NC(=O)[C@@H](NC(=O)[C@@H](NC(=O)[C@@H](N)CCCNC(=N)N)C(C)C)[C@@H](C)CC)C(C)C)C(C)C)C(=O)N[C@@H](CCCNC(=N)N)C(=O)N[C@@H](Cc1c[nH]cn1)C(=O)N[C@H](C(=O)N[C@H](C(=O)N[C@@H](CCCNC(=N)N)C(=O)N[C@@H](CCCNC(=N)N)C(=O)N[C@H](C(=O)N[C@@H](CCCNC(=N)N)C(=O)N[C@@H](CCC(N)=O)C(=O)NCC(=O)N[C@@H](CC(C)C)C(=O)N[C@@H](CCCNC(=N)N)C(=O)N[C@@H](CCCNC(=N)N)C(=O)N[C@H](C(=O)N[C@@H](CC(C)C)C(=O)N[C@@H](CCCNC(=N)N)C(=O)N[C@H](C(=O)N[C@H](C(=O)O)C(C)C)C(C)C)[C@@H](C)CC)[C@@H](C)CC)C(C)C)[C@@H](C)CC` [LSA-5] (H-RVIRVVQRACRAIRHIVRRIRQGLRRILRVV-OH), the MBC in the data set on Pseudomonas aeruginosa (setting [8]) came out at 0.8 µM; against Pseudomonas aeruginosa (150 mM NaCl (physiologic)), 0.8 µM (≈ 3.06 µg/mL); with Staphylococcus aureus [4] (setting [8]), 1 µM; in the data set with Staphylococcus aureus [4] (150 mM NaCl (physiologic)) it was 1 µM (≈ 3.82 µg/mL); in data set [5], 0.15 µM. Moreover, the adverse toxicity entry in data set [6] was “no adverse toxicity was observed”.
In the case of `CC[C@H](C)[C@H](NC(=O)[C@H](C)NC(=O)[C@H](CCCNC(=N)N)NC(=O)[C@H](CS)NC(=O)[C@H](Cc1c[nH]c2ccccc12)NC(=O)[C@H](CCCNC(=N)N)NC(=O)[C@H](CCC(N)=O)NC(=O)[C@@H](NC(=O)[C@@H](NC(=O)[C@H](CCCNC(=N)N)NC(=O)[C@@H](NC(=O)[C@H](Cc1c[nH]c2ccccc12)NC(=O)[C@@H](N)CCCNC(=N)N)[C@@H](C)CC)C(C)C)C(C)C)C(=O)N[C@@H](CCCNC(=N)N)C(=O)N[C@@H](Cc1c[nH]cn1)C(=O)N[C@H](C(=O)N[C@@H](Cc1c[nH]c2ccccc12)C(=O)N[C@@H](CCCNC(=N)N)C(=O)N[C@@H](CCCNC(=N)N)C(=O)N[C@H](C(=O)N[C@@H](CCCNC(=N)N)C(=O)N[C@@H](CCC(N)=O)C(=O)NCC(=O)N[C@@H](CC(C)C)C(=O)N[C@@H](CCCNC(=N)N)C(=O)N[C@@H](CCCNC(=N)N)C(=O)N[C@@H](Cc1c[nH]c2ccccc12)C(=O)N[C@@H](CC(C)C)C(=O)N[C@@H](CCCNC(=N)N)C(=O)N[C@H](C(=O)N[C@H](C(=O)O)C(C)C)C(C)C)[C@@H](C)CC)[C@@H](C)CC` [WLSA-5] (H-RWIRVVQRWCRAIRHIWRRIRQGLRRWLRVV-OH), the MBC with Pseudomonas aeruginosa (setting [8]) is 1 µM; with Pseudomonas aeruginosa (150 mM NaCl (physiologic)), 1 µM (≈ 4.18 µg/mL); in the data set with Staphylococcus aureus [4] (setting [8]), 1 µM; against Staphylococcus aureus [4] (150 mM NaCl (physiologic)), 1 µM (≈ 4.18 µg/mL); in data set [5], 0.15 µM. Further, the “effect on transepithelial resistance” value in data set [7] is “transient and not significantly different from LL-37”.

Broadly, the MBC is the smallest concentration meeting the test's criterion for killing.
